{"source": "patent US20030104507A1", "about": "“Method for detection of ATP” (priority 2001, published 2003)", "key": {"LucPpe2m146": {"system": "LucPpe2m146", "assay": "Stability of reagent composition with LucPpe2m146 and detergent (RT, pH 7.0)", "assay_type": "biochemical, Photuris pennsylvanica", "source_text": "(§1) The detergents used for inhibition of endogenous ATPase activity in a sample also affect activity of luciferase. […] It is ultimately the extended stability of a reagent composition, comprising an ATPase inhibitor and a luciferase enzyme, which provides a composition useful for measuring ATP, in a sample or samples, over an extended period of time.\n(§2) In this experiment, the stability of a reagent composition comprising wild type LucPpy was compared to the stability of a reagent composition comprising LucPpe2m146 at about 23° C. (room temperature). The various reagent compositions had varying detergent concentrations.\n(§3) Two solutions were created as listed below. One contained the luciferase, luciferin, MgSO4, and buffer (reagent composition). The other solution contained media plus ATP (media solution).\n(§4) 50 μg/ml enzyme (LucPpy is Promega catalog #E170A)\n(§5) Detergent (at various concentrations, see table below)\n(§6) For each reagent composition, all ingredients except the luciferase enzyme were assembled; the enzyme was then added immediately before the first luminescence reading was taken. Immediately after addition of enzyme to each reagent composition and for various timepoints thereafter, 100 μl aliquots of the reagent composition were added to wells of a 96-well microtitre luminometer plate in triplicate. To these were added 100 μl Media Solution containing the ATP. Luminescence was then immediately read on a Dynex MLX microtitreplate luminometer, 0.5 second reads per well. The average relative light unit values as well as the reaction half lives are listed below in Table I and the percent of original luminescence remaining at each timepoint is listed in Table J below. The timepoint at the top of the column indicates the time at which the first rlu measurement for the samples in that column was read. […] Times listed in Table I are the same for Table J. The values for sulfobetaine and for CTAB were generated on different days, they are presented with the control values generated in the same experiment."}, "LucPpy": {"molecular_target": "T1, LucPpy (Photinus pyralis, UniProt P08659)", "T1 construct": "purchased Promega E170A", "assay": "Stability of reagent composition with LucPpy and detergent (RT, pH 7.0)", "assay_type": "biochemical", "details": "LucPpy", "source_text": "as §1, §2, §3, §4, §5, §6"}}}
{"smiles": "CCCCCCCCCCCCCCCC[N+](C)(C)C.[Br-]", "note": "[CTAB, Cetyltrimethylammonium bromide]", "values": [{"measurement": "Average Relative Light Units", "setting": "LucPpe2m146; LucPpe2m146, 0.02%, 1.0 min (head r61)", "result": 11019.8, "unit": "rlu"}, {"measurement": "Percent of Luminescence Remaining", "setting": "LucPpe2m146; LucPpe2m146, 0.02%, 1.0 min (times of Table I r61)", "result": 100.00, "unit": "%"}, {"measurement": "Average Relative Light Units", "setting": "LucPpe2m146; LucPpe2m146, 0.02%, 37 min (head r61)", "result": 2051.7, "unit": "rlu"}, {"measurement": "Percent of Luminescence Remaining", "setting": "LucPpe2m146; LucPpe2m146, 0.02%, 37 min (times of Table I r61)", "result": 18.62, "unit": "%"}, {"measurement": "Average Relative Light Units", "setting": "LucPpe2m146; LucPpe2m146, 0.02%, 67 min (head r61)", "result": 1087.4, "unit": "rlu"}, {"measurement": "Percent of Luminescence Remaining", "setting": "LucPpe2m146; LucPpe2m146, 0.02%, 67 min (times of Table I r61)", "result": 9.87, "unit": "%"}, {"measurement": "Average Relative Light Units", "setting": "LucPpe2m146; LucPpe2m146, 0.02%, 116 min (head r61)", "result": 6117.8, "unit": "rlu"}, {"measurement": "Percent of Luminescence Remaining", "setting": "LucPpe2m146; LucPpe2m146, 0.02%, 116 min (times of Table I r61)", "result": 55.52, "unit": "%"}, {"measurement": "Average Relative Light Units", "setting": "LucPpe2m146; LucPpe2m146, 0.02%, 177 min (head r61)", "result": 16020.8, "unit": "rlu"}, {"measurement": "Percent of Luminescence Remaining", "setting": "LucPpe2m146; LucPpe2m146, 0.02%, 177 min (times of Table I r61)", "result": 145.38, "unit": "%"}, {"measurement": "Average Relative Light Units", "setting": "LucPpe2m146; LucPpe2m146, 0.02%, 243 min (head r61)", "result": 16368.5, "unit": "rlu"}, {"measurement": "Percent of Luminescence Remaining", "setting": "LucPpe2m146; LucPpe2m146, 0.02%, 243 min (times of Table I r61)", "result": 148.54, "unit": "%"}, {"measurement": "Average Relative Light Units", "setting": "LucPpe2m146; LucPpe2m146, 0.05%, 1.0 min (head r61)", "result": 11992.5, "unit": "rlu"}, {"measurement": "Percent of Luminescence Remaining", "setting": "LucPpe2m146; LucPpe2m146, 0.05%, 1.0 min (times of Table I r61)", "result": 100.00, "unit": "%"}, {"measurement": "Average Relative Light Units", "setting": "LucPpe2m146; LucPpe2m146, 0.05%, 37 min (head r61)", "result": 301.5, "unit": "rlu"}, {"measurement": "Percent of Luminescence Remaining", "setting": "LucPpe2m146; LucPpe2m146, 0.05%, 37 min (times of Table I r61)", "result": 2.51, "unit": "%"}, {"measurement": "Average Relative Light Units", "setting": "LucPpe2m146; LucPpe2m146, 0.05%, 67 min (head r61)", "result": 131.7, "unit": "rlu"}, {"measurement": "Percent of Luminescence Remaining", "setting": "LucPpe2m146; LucPpe2m146, 0.05%, 67 min (times of Table I r61)", "result": 1.10, "unit": "%"}, {"measurement": "Average Relative Light Units", "setting": "LucPpe2m146; LucPpe2m146, 0.05%, 116 min (head r61)", "result": 4219.7, "unit": "rlu"}, {"measurement": "Percent of Luminescence Remaining", "setting": "LucPpe2m146; LucPpe2m146, 0.05%, 116 min (times of Table I r61)", "result": 35.19, "unit": "%"}, {"measurement": "Average Relative Light Units", "setting": "LucPpe2m146; LucPpe2m146, 0.05%, 177 min (head r61)", "result": 16910.8, "unit": "rlu"}, {"measurement": "Percent of Luminescence Remaining", "setting": "LucPpe2m146; LucPpe2m146, 0.05%, 177 min (times of Table I r61)", "result": 141.01, "unit": "%"}, {"measurement": "Average Relative Light Units", "setting": "LucPpe2m146; LucPpe2m146, 0.05%, 243 min (head r61)", "result": 17340.0, "unit": "rlu"}, {"measurement": "Percent of Luminescence Remaining", "setting": "LucPpe2m146; LucPpe2m146, 0.05%, 243 min (times of Table I r61)", "result": 144.5, "unit": "%"}, {"measurement": "Average Relative Light Units", "setting": "LucPpe2m146; LucPpe2m146, 0.1%, 1.0 min (head r61)", "result": 1047.8, "unit": "rlu"}, {"measurement": "Percent of Luminescence Remaining", "setting": "LucPpe2m146; LucPpe2m146, 0.1%, 1.0 min (times of Table I r61)", "result": 100.00, "unit": "%"}, {"measurement": "Average Relative Light Units", "setting": "LucPpe2m146; LucPpe2m146, 0.1%, 37 min (head r61)", "result": 5.3, "unit": "rlu"}, {"measurement": "Percent of Luminescence Remaining", "setting": "LucPpe2m146; LucPpe2m146, 0.1%, 37 min (times of Table I r61)", "result": 0.51, "unit": "%"}, {"measurement": "Average Relative Light Units", "setting": "LucPpe2m146; LucPpe2m146, 0.1%, 67 min (head r61)", "result": 5.2, "unit": "rlu"}, {"measurement": "Percent of Luminescence Remaining", "setting": "LucPpe2m146; LucPpe2m146, 0.1%, 67 min (times of Table I r61)", "result": 0.50, "unit": "%"}, {"measurement": "Average Relative Light Units", "setting": "LucPpe2m146; LucPpe2m146, 0.1%, 116 min (head r61)", "result": 6.2, "unit": "rlu"}, {"measurement": "Percent of Luminescence Remaining", "setting": "LucPpe2m146; LucPpe2m146, 0.1%, 116 min (times of Table I r61)", "result": 0.59, "unit": "%"}, {"measurement": "Average Relative Light Units", "setting": "LucPpe2m146; LucPpe2m146, 0.1%, 177 min (head r61)", "result": 6.0, "unit": "rlu"}, {"measurement": "Percent of Luminescence Remaining", "setting": "LucPpe2m146; LucPpe2m146, 0.1%, 177 min (times of Table I r61)", "result": 0.58, "unit": "%"}, {"measurement": "Average Relative Light Units", "setting": "LucPpe2m146; LucPpe2m146, 0.1%, 243 min (head r61)", "result": 5.7, "unit": "rlu"}, {"measurement": "Percent of Luminescence Remaining", "setting": "LucPpe2m146; LucPpe2m146, 0.1%, 243 min (times of Table I r61)", "result": 0.55, "unit": "%"}, {"measurement": "Average Relative Light Units", "setting": "LucPpy; 0.02%, 0.75 min (head r25)", "result": 1869.80, "unit": "rlu"}, {"measurement": "Percent of Luminescence Remaining", "setting": "LucPpy; 0.02%, 0.75 min (times of Table I r25)", "result": 100.00, "unit": "%"}, {"measurement": "Average Relative Light Units", "setting": "LucPpy; 0.02%, 6 min (head r25)", "result": 79.719, "unit": "rlu"}, {"measurement": "Percent of Luminescence Remaining", "setting": "LucPpy; 0.02%, 6 min (times of Table I r25)", "result": 0.09, "unit": "%"}, {"measurement": "Percent of Luminescence Remaining", "setting": "LucPpy; 0.02%, 16 min (times of Table I r25, r31)", "result": 0.03, "unit": "%"}, {"measurement": "Average Relative Light Units", "setting": "LucPpy; 0.02%, (16 min) (head r25)", "result": 0.099, "unit": "rlu"}, {"measurement": "Average Relative Light Units", "setting": "LucPpy; 0.05%, 0.75 min (head r25)", "result": 1134.53, "unit": "rlu"}, {"measurement": "Percent of Luminescence Remaining", "setting": "LucPpy; 0.05%, 0.75 min (times of Table I r25)", "result": 100.00, "unit": "%"}, {"measurement": "Average Relative Light Units", "setting": "LucPpy; 0.05%, 6 min (head r25)", "result": 0.563, "unit": "rlu"}, {"measurement": "Percent of Luminescence Remaining", "setting": "LucPpy; 0.05%, 6 min (times of Table I r25)", "result": 0.05, "unit": "%"}, {"measurement": "Average Relative Light Units", "setting": "LucPpy; 0.05%, 20 min (head r25)", "result": 0.015, "unit": "rlu"}, {"measurement": "Percent of Luminescence Remaining", "setting": "LucPpy; 0.05%, 20 min (times of Table I r25)", "result": 0.00, "unit": "%"}, {"measurement": "Average Relative Light Units", "setting": "LucPpy; 0.1%, 0.75 min (head r25)", "result": 94.603, "unit": "rlu"}, {"measurement": "Percent of Luminescence Remaining", "setting": "LucPpy; 0.1%, 0.75 min (times of Table I r25)", "result": 100.00, "unit": "%"}, {"measurement": "Average Relative Light Units", "setting": "LucPpy; 0.1%, 6 min (head r25)", "result": 0.020, "unit": "rlu"}, {"measurement": "Percent of Luminescence Remaining", "setting": "LucPpy; 0.1%, 6 min (times of Table I r25)", "result": 0.02, "unit": "%"}]}
